The NIST ThermoML archive (doi:10.1016/j.fluid.2008.08.015)
Numbers after ± are expanded uncertainties.

Details: 295 K; for surface tension liquid-gas: Maximal bubble pressure; for mass density / viscosity: 101.33 kPa, Liquid; for mass density: Buoyancy - hydrostatic balance with magnetic suspension - one sinker; for viscosity: Concentric cylinders viscometry

Row | Compound | surface tension liquid-gas [mN/m] | mass density [kg/m3] | viscosity [mPa·s]
1 | OCCO [1,2-ethanediol] | 47.95 ± 2.4 | 1120.7 ± 22 | 21.26 ± 3.1
2 | OCC(O)CO [glycerol] | 62.87 ± 1.4 | 1267.4 ± 25 | 1499.5 ± 190
